Source: patent publication US20060073216A1, “Compositions and methods for control of bovine mastitis” (Solution Biosciences, Inc., priority 2002, published 2006)

Assay: Solubility in water
Format: physicochemical
Settings: water at 75° F. (ca. 24° C.), expressed as Cl2

Compound | solubility in water
CC1(C)C(=O)N(Cl)C(=O)N1Br [N,N′-bromochloro-5,5-dimethylhydantoin] | about 890 ppm
CC1(C)C(=O)N(Br)C(=O)N1Br [1,3-dibromo-5,5dimethylhydantoin, 1,3-dibromo-5,5-dimethylhydantoin] | about 405 ppm
